How the values were obtained:
[1] = Plasma pharmacokinetics of 17-AAG and its metabolite 17-AG; format: in vivo, patients; settings: for AUC exposed: combined AUC of 17-AAG and 17-AG
[2] = tested on: acute myeloid leukemia; settings: phase I trial in AML, after one cycle of therapy; cited from earlier work
[3] = tested on: cytochrome P450 3A4; settings: cited from earlier work
[4] = 17-AAG in plasma, day 1 (17-AAG alone), 150 mg/m^2, n=8
[5] = 17-AAG in plasma, day 1 (17-AAG alone), 200 mg/m^2, n=3
[6] = 17-AAG in plasma, day 4 (17-AAG+PS-341), 150 mg/m^2, n=8
[7] = 17-AAG in plasma, day 4 (17-AAG+PS-341), 200 mg/m^2, n=3
[8] = 17-AAG, day 1 (17-AAG alone), 150 mg/m^2, n=8
[9] = 17-AAG, day 1 (17-AAG alone), 200 mg/m^2, n=3
[10] = 17-AAG, day 4 (17-AAG+PS-341), 150 mg/m^2, n=8
[11] = 17-AAG, day 4 (17-AAG+PS-341), 200 mg/m^2, n=3
[12] = metabolite 17-AG, day 1 (17-AAG alone), 17-AAG 150 mg/m^2, n=8
[13] = metabolite 17-AG, day 1 (17-AAG alone), 17-AAG 200 mg/m^2, n=3
[14] = metabolite 17-AG, day 4 (17-AAG+PS-341), 17-AAG 150 mg/m^2, n=8
[15] = metabolite 17-AG, day 4 (17-AAG+PS-341), 17-AAG 200 mg/m^2, n=3

C=CCNC1=C2C[C@@H](C)C[C@H](OC)[C@H](O)[C@@H](C)/C=C(\C)[C@H](OC(N)=O)[C@@H](OC)/C=C\C=C(/C)C(=O)NC(=CC1=O)C2=O [17-AAG, 17-Allylamino-17-demethoxygeldanamycin, reference compound]
Cmax ([1]; 17-AAG in plasma, cycle 1 day 1 (17-AAG alone), 17-AAG 200 mg/m^2 IV, n=3): 3814 ± 578 ng/mL | AUCtot [1, 4]: 5871 ± 2508 ng·h/mL | Terminal T1/2 [1, 4]: 4.77 ± 1.15 h | AUCtot [1, 5]: 9002 ± 1970 ng·h/mL | Terminal T1/2 [1, 5]: 4.59 ± 0.21 h | AUCtot [1, 6]: 6717 ± 2631 ng·h/mL | Terminal T1/2 [1, 6]: 4.04 ± 0.86 h | AUCtot [1, 7]: 9142 ± 1358 ng·h/mL | Terminal T1/2 [1, 7]: 3.78 ± 1.29 h | Clearance [1, 8]: 29.36 ± 11.11 L/h | Vss [1, 8]: 98.10 ± 37.46 L | Clearance [1, 9]: 22.92 ± 4.89 L/h | Vss [1, 9]: 73.30 ± 16.81 L | Clearance [1, 10]: 24.94 ± 8.10 L/h | Vss [1, 10]: 82.36 ± 19.91 L | Clearance [1, 11]: 21.92 ± 3.91 L/h | Vss [1, 11]: 86.83 ± 24.37 L

CO[C@H]1/C=C\C=C(/C)C(=O)NC2=CC(=O)C(N)=C(C[C@@H](C)C[C@H](OC)[C@H](O)[C@@H](C)/C=C(\C)[C@@H]1OC(N)=O)C2=O [17-AG, 17-amino-17-demethoxygeldanamycin]
AUC exposed ([1]; day 1 (17-AAG alone), 17-AAG 150 mg/m^2, n=8): 12205 ± 8530 ng·h/mL | AUC exposed ([1]; day 1 (17-AAG alone), 17-AAG 200 mg/m^2, n=3): 18959 ± 3169 ng·h/mL | AUC exposed ([1]; day 4 (17-AAG+PS-341), 17-AAG 150 mg/m^2, n=8): 14468 ± 7179 ng·h/mL | AUC exposed ([1]; day 4 (17-AAG+PS-341), 17-AAG 200 mg/m^2, n=3): 22403 ± 1036 ng·h/mL | change in 17-AG clearance on co-administration with bortezomib ([1]; day 4 (17-AAG+bortezomib) vs day 1 (17-AAG alone), all 11 patients, p=0.005): decrease in clearance | change in 17-AG AUC on co-administration with bortezomib ([1]; day 4 (17-AAG+bortezomib) vs day 1 (17-AAG alone), all 11 patients, p=.032): increase in AUC | Cmax ([1]; metabolite 17-AG in plasma, day 1 (17-AAG alone), 17-AAG 150 mg/m^2, n=8): 821 ± 450 ng/mL | Cmax ([1]; metabolite 17-AG in plasma, day 1 (17-AAG alone), 17-AAG 200 mg/m^2, n=3): 1300 ± 421 ng/mL | Cmax ([1]; metabolite 17-AG in plasma, day 4 (17-AAG+PS-341), 17-AAG 150 mg/m^2, n=8): 1025 ± 445 ng/mL | Cmax ([1]; metabolite 17-AG in plasma, day 4 (17-AAG+PS-341), 17-AAG 200 mg/m^2, n=3): 1412 ± 26 ng/mL | Clearance ([1]; metabolite 17-AG, apparent clearance, day 1 (17-AAG alone), 17-AAG 150 mg/m^2, n=8): 41.35 ± 26.48 L/h | Clearance ([1]; metabolite 17-AG, apparent clearance, day 1 (17-AAG alone), 17-AAG 200 mg/m^2, n=3): 23.07 ± 12.01 L/h | Clearance ([1]; metabolite 17-AG, apparent clearance, day 4 (17-AAG+PS-341), 17-AAG 150 mg/m^2, n=8): 29.87 ± 23.29 L/h | Clearance ([1]; metabolite 17-AG, apparent clearance, day 4 (17-AAG+PS-341), 17-AAG 200 mg/m^2, n=3): 14.86 ± 1.55 L/h | AUCtot [1, 12]: 6334 ± 6244 ng·h/mL | Terminal T1/2 [1, 12]: 11.16 ± 1.40 h | Tmax [1, 12]: 1.53 ± 0.42 h | AUCtot [1, 13]: 9957 ± 4258 ng·h/mL | Terminal T1/2 [1, 13]: 7.92 ± 1.76 h | Tmax [1, 13]: 1.53 ± 0.46 h | AUCtot [1, 14]: 7751 ± 5028 ng·h/mL | Terminal T1/2 [1, 14]: 10.53 ± 2.20 h | Tmax [1, 14]: 1.85 ± 1.10 h | AUCtot [1, 15]: 13261 ± 1216 ng·h/mL | Terminal T1/2 [1, 15]: 7.47 ± 0.73 h | Tmax [1, 15]: 3.72 ± 0.64 h

CO[C@H]1/C=C\C=C(/C)C(=O)NC2=CC(=O)C(NCCN(C)C)=C(C[C@@H](C)C[C@H](OC)[C@H](O)[C@@H](C)/C=C(\C)[C@@H]1OC(N)=O)C2=O [alvespimycin]
clinical response [2]: three patients achieved a complete remission with incomplete count recovery

CC(C)C[C@H](NC(=O)[C@H](Cc1ccccc1)NC(=O)c1cnccn1)B(O)O [bortezomib]
metabolizing enzyme [3]: metabolized by cytochrome P450 3A4
